Measured values: US20250064945A1 (Arvinas Operations, Inc., priority 2021, published 2025)

Biological target: T1, BRM (Homo sapiens, UniProt P51531)
T1 construct: In-Cell Western Screen of BRM Degradation in SW1573 Cells; endogenous in cells; host or cells: SW1573 cells
Test: Western blot / In-Cell Western screen of BRM degradation in SW1573 cells
Format: cell-based
Conditions: overnight (18-20 hours) treatment; for Dmax: read-out: Dmax (%) (% degraded)
Outline: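 SW1573 cells treated overnight (18-20 hours) with compound at 0.1% final DMSO. BRM measured either by Western blot of RIPA lysates with alpha-tubulin control and chemiluminescent detection, or by In-Cell Western on fixed, permeabilized cells with LI-COR dual-channel read against alpha-tubulin; Dmax and DC50 derived.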

T1 sequence (P51531 whole entry): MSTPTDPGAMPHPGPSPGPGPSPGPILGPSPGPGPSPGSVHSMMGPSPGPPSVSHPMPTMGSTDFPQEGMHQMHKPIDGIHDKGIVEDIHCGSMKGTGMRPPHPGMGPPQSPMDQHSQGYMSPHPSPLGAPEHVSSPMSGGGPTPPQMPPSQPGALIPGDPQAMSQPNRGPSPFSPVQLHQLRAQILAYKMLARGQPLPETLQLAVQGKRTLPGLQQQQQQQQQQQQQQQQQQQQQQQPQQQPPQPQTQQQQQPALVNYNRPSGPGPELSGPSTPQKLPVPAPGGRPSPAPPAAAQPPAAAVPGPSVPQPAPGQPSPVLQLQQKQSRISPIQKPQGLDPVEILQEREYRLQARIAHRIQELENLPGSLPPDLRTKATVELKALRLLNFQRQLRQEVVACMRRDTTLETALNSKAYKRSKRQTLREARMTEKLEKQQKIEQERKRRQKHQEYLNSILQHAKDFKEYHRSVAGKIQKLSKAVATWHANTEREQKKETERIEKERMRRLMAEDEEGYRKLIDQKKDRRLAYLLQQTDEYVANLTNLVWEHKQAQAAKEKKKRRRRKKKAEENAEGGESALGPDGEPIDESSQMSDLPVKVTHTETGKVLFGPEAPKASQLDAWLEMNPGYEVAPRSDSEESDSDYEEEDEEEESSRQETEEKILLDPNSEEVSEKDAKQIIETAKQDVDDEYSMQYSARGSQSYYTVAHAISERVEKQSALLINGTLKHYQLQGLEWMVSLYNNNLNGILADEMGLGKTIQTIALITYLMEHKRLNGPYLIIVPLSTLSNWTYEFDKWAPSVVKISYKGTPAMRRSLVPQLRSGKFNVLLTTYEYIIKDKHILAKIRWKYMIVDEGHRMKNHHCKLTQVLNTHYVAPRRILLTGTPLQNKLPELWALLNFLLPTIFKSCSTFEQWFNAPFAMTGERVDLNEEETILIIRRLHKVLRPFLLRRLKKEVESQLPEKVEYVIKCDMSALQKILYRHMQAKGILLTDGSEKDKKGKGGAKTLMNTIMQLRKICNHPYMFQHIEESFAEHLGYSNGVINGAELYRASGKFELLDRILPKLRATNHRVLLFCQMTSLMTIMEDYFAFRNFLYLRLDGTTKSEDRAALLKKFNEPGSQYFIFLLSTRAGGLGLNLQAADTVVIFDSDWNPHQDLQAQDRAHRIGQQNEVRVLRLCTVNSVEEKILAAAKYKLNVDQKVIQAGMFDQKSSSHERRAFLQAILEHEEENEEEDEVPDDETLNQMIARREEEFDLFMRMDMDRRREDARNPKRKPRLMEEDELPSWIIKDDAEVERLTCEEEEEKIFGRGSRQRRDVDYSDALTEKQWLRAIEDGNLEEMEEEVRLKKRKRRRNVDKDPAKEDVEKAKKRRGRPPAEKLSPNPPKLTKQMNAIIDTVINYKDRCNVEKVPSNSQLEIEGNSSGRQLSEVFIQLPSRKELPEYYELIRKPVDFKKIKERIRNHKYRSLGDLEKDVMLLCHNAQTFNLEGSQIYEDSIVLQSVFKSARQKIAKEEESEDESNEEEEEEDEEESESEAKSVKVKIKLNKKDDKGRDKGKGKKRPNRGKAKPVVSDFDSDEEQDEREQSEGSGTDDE

Structure (SMILES) | DC50 | Dmax
Cc1ncsc1-c1ccc([C@H](C)NC(=O)[C@@H]2C[C@@H](O)CN2C(=O)[C@@H](c2cc(N3CCC(CN4CCC(O[C@H]5C[C@H](N6CCC(CN7CC8(C7)CN(c7cc(-c9ccccc9O)nnc7N)CCO8)CC6)C5)CC4)CC3)no2)C(C)C)cc1 [Compound 11, (2S,4R)-4-hydroxy-N-[(1S)-1-[4-(4-methyl-1,3-thiazol-5-yl)phenyl]ethyl]-1-[(2R)-3-methyl-2-{3-[4-({4-[(1r,3r)-3-[4-({8-[3-amino-6-(2-hydroxyphenyl)pyridazin-4-yl]-5-oxa-2,8-diazaspiro[3.5]nonan-2-yl}methyl)piperidin-1-yl]cyclobutoxy]piperidin-1-yl}methyl)piperidin-1-yl]-1,2-oxazol-5-yl}butanoyl]pyrrolidine-2-carboxamide] | 2.5 to 10 nM | > 75%
Cc1ncsc1-c1ccc([C@H](C)NC(=O)[C@@H]2C[C@@H](O)CN2C(=O)[C@@H](c2cc(N3CCC(CN4CCC(O[C@H]5C[C@H](Oc6cc(N7C[C@@H]8CN(c9cc(-c%10ccccc%10O)nnc9N)C[C@@H]8C7)ccn6)C5)CC4)CC3)no2)C(C)C)cc1 [Compound 7, (2S,4R)-4-hydroxy-N-[(1S)-1-[4-(4-methyl-1,3-thiazol-5-yl)phenyl]ethyl]-1-[(2R)-3-methyl-2-{3-[4-({4-[(1r,3r)-3-({4-[(3aR,6aS)-5-[3-amino-6-(2-hydroxyphenyl)pyridazin-4-yl]-octahydropyrrolo[3,4-c]pyrrol-2-yl]pyridin-2-yl}oxy)cyclobutoxy]piperidin-1-yl}methyl)piperidin-1-yl]-1,2-oxazol-5-yl}butanoyl]pyrrolidine-2-carboxamide] | < 2.5 nM | > 75%
Cc1ncsc1-c1ccc([C@H](C)NC(=O)[C@@H]2C[C@@H](O)CN2C(=O)[C@H](c2cc(OCCCC#Cc3cn4cc(-c5ccccc5O)nc4nc3N)no2)C(C)C)cc1 [Compound 30, (2S,4R)-1-[(2S)-2-[3-({5-[7-amino-2-(2-hydroxyphenyl)imidazo[1,2-a]pyrimidin-6-yl]pent-4-yn-1-yl}oxy)-1,2-oxazol-5-yl]-3-methylbutanoyl]-4-hydroxy-N-[(1S)-1-[4-(4-methyl-1,3-thiazol-5-yl)phenyl]ethyl]pyrrolidine-2-carboxamide] | ≥ 30 nM | 
Cc1ncsc1-c1ccc([C@H](C)NC(=O)[C@@H]2C[C@@H](O)CN2C(=O)[C@H](c2cc(N3CCC(O[C@H]4C[C@H](OCC#Cc5cn6cc(-c7ccccc7O)nc6nc5N)C4)CC3)no2)C(C)C)cc1 [Compound 34, (2S,4R)-4-hydroxy-N-[(1S)-1-[4-(4-methyl-1,3-thiazol-5-yl)phenyl]ethyl]-1-[(2S)-3-methyl-2-(3-{4-[(1r,3r)-3-({3-[7-amino-2-(2-hydroxyphenyl)imidazo[1,2-a]pyrimidin-6-yl]prop-2-yn-1-yl}oxy)cyclobutoxy]piperidin-1-yl}-1,2-oxazol-5-yl)butanoyl]pyrrolidine-2-carboxamide] | ≥ 30 nM | 
Cc1ncsc1-c1ccc([C@H](C)NC(=O)[C@@H]2C[C@@H](O)CN2C(=O)[C@@H](c2cc(OCCN3CCN(CCOc4cc(N5CCN(c6cc(-c7ccccc7O)nnc6N)CC56COC6)ccn4)CC3)no2)C(C)C)cn1 [Compound 17, (2S,4R)-1-[(2R)-2-{3-[2-(4-{2-[(4-{8-[3-amino-6-(2-hydroxyphenyl)pyridazin-4-yl]-2-oxa-5,8-diazaspiro[3.5]nonan-5-yl}pyridin-2-yl)oxy]ethyl}piperazin-1-yl)ethoxy]-1,2-oxazol-5-yl}-3-methylbutanoyl]-4-hydroxy-N-[(1S)-1-[6-(4-methyl-1,3-thiazol-5-yl)pyridin-3-yl]ethyl]pyrrolidine-2-carboxamide] | 2.5 to 10 nM | > 75%
Cc1ncsc1-c1ccc([C@H](C)NC(=O)[C@@H]2C[C@@H](O)CN2C(=O)[C@@H](c2cc(OCCCC#Cc3cn4cc(-c5ccccc5O)nc4nc3N)no2)C(C)C)cc1 [Compound 31, (2S,4R)-1-[(2R)-2-[3-[5-[7-amino-2-(2-hydroxyphenyl)imidazo[1,2-a]pyrimidin-6-yl]pent-4-ynoxy]isoxazole-5-yl]-3-methyl-butanoyl]-4-hydroxy-N-[(1S)-1-[4-(4-methylthiazol-5-yl)phenyl]ethyl]pyrrolidine-2-carboxamide] | ≥ 30 nM | 
Cc1ncsc1-c1ccc([C@H](C)NC(=O)[C@@H]2C[C@@H](O)CN2C(=O)[C@@H](c2cc(N3CCC(CN4CCC(O[C@H]5C[C@H](Oc6cc(N7CCN(c8cc(-c9ccccc9O)nnc8N)CC78CC8)ccn6)C5)CC4)CC3)no2)C(C)C)cc1 [Compound 6, (2S,4R)-4-hydroxy-N-[(1S)-1-[4-(4-methyl-1,3-thiazol-5-yl)phenyl]ethyl]-1-[(2R)-3-methyl-2-{3-[4-({4-[(1r,3r)-3-[(4-{7-[3-amino-6-(2-hydroxyphenyl)pyridazin-4-yl]-4,7-diazaspiro[2.5]octan-4-yl}pyridin-2-yl)oxy]cyclobutoxy]piperidin-1-yl}methyl)piperidin-1-yl]-1,2-oxazol-5-yl}butanoyl]pyrrolidine-2-carboxamide] | < 2.5 nM | > 75%
Cc1ncsc1-c1ccc([C@H](C)NC(=O)[C@@H]2C[C@@H](O)CN2C(=O)[C@@H](c2cc(N3CCC(CN4CCC(O[C@H]5C[C@H](C#Cc6cn7cc(-c8ccccc8O)nc7nc6N)C5)CC4)CC3)no2)C(C)C)cc1 [Compound 28, (2S,4R)-4-hydroxy-N-[(1S)-1-[4-(4-methyl-1,3-thiazol-5-yl)phenyl]ethyl]-1-[(2R)-3-methyl-2-{3-[4-({4-[(1r,3r)-3-(2-[7-amino-2-(2-hydroxyphenyl)imidazo[1,2-a]pyrimidin-6-yl]ethynyl}cyclobutoxy]piperidin-1-yl}methyl)piperidin-1-yl]-1,2-oxazol-5-yl}butanoyl]pyrrolidine-2-carboxamide] | < 2.5 nM | > 75%
Cc1ncsc1-c1ccc([C@H](C)NC(=O)[C@@H]2C[C@@H](O)CN2C(=O)[C@@H](c2cc(N3CCC(CN4CCC(O[C@H]5C[C@H](Cn6cnc(-c7cn8cc(-c9ccccc9O)nc8nc7N)c6)C5)CC4)CC3)no2)C(C)C)cc1 [Compound 43, (2S,4R)-4-hydroxy-N-[(1S)-1-[4-(4-methyl-1,3-thiazol-5-yl)phenyl]ethyl]-1-[(2R)-3-methyl-2-{3-[4-({4-[(1r,3r)-3-({4-[7-amino-2-(2-hydroxyphenyl)imidazo[1,2-a]pyrimidin-6-yl]-1H-imidazol-1-yl}methyl)cyclobutoxy]piperidin-1-yl}methyl)piperidin-1-yl]-1,2-oxazol-5-yl}butanoyl]pyrrolidine-2-carboxamide] | 2.5 to 10 nM | > 75%
Cc1ncsc1-c1ccc([C@H](C)NC(=O)[C@@H]2C[C@@H](O)CN2C(=O)[C@@H](c2cc(N3CCC(CN4CCC5(CC4)CC(N4CCO[C@@H](CN6CCOC7(CCCN(c8cc(-c9ccccc9O)nnc8N)C7)C6)C4)C5)CC3)no2)C(C)C)cc1 (stereo partly drawn) [Compound 22, (2S,4R)-1-[(2R)-2-{3-[4-({2-[(2S)-2-({8-[3-amino-6-(2-hydroxyphenyl)pyridazin-4-yl]-1-oxa-4,8-diazaspiro[5.5]undecan-4-yl}methyl)morpholin-4-yl]-7-azaspiro[3.5]nonan-7-yl}methyl)piperidin-1-yl]-1,2-oxazol-5-yl}-3-methylbutanoyl]-4-hydroxy-N-[(1S)-1-[4-(4-methyl-1,3-thiazol-5-yl)phenyl]ethyl]pyrrolidine-2-carboxamide] | < 2.5 nM | > 75%
Cc1ncsc1-c1ccc([C@H](C)NC(=O)[C@@H]2C[C@@H](O)CN2C(=O)[C@@H](c2cc(N3CCC(CN4CCC(O[C@H]5C[C@H](n6cc(CN7C8CCC7CN(c7cc(-c9ccccc9O)nnc7N)C8)cn6)C5)CC4)CC3)no2)C(C)C)cc1 [Compound 12, (2S,4R)-4-hydroxy-N-[(1S)-1-[4-(4-methyl-1,3-thiazol-5-yl)phenyl]ethyl]-1-[(2R)-3-methyl-2-{3-[4-({4-[(1r,3r)-3-[4-({3-[3-amino-6-(2-hydroxyphenyl)pyridazin-4-yl]-3,8-diazabicyclo[3.2.1]octan-8-yl}methyl)-1H-pyrazol-1-yl]cyclobutoxy]piperidin-1-yl}methyl)piperidin-1-yl]-1,2-oxazol-5-yl}butanoyl]pyrrolidine-2-carboxamide] | 2.5 to 10 nM | > 75%
Cc1ncsc1-c1ccc([C@H](C)NC(=O)[C@@H]2C[C@@H](O)CN2C(=O)[C@@H](c2cc(N3CCC(CN4CCC(O[C@H]5C[C@H](n6ccc(CN7C8CCC7CN(c7cc(-c9ccccc9O)nnc7N)C8)n6)C5)CC4)CC3)no2)C(C)C)cc1 [Compound 14, (2S,4R)-4-hydroxy-N-[(1S)-1-[4-(4-methyl-1,3-thiazol-5-yl)phenyl]ethyl]-1-[(2R)-3-methyl-2-{3-[4-({4-[(1r,3r)-3-[3-({3-[3-amino-6-(2-hydroxyphenyl)pyridazin-4-yl]-3,8-diazabicyclo[3.2.1]octan-8-yl}methyl)-1H-pyrazol-1-yl]cyclobutoxy]piperidin-1-yl}methyl)piperidin-1-yl]-1,2-oxazol-5-yl}butanoyl]pyrrolidine-2-carboxamide] | ≥ 30 nM | 
Cc1ncsc1-c1ccc([C@H](C)NC(=O)[C@@H]2C[C@@H](O)CN2C(=O)[C@@H](c2cc(N3CCC(CN4CCC(OCCn5cnc(-c6cn7cc(-c8ccccc8O)nc7nc6N)c5)CC4)CC3)no2)C(C)C)cc1 [Compound 38, (2S,4R)-1-[(2R)-2-[3-(4-{[4-(2-{4-[7-amino-2-(2-hydroxyphenyl)imidazo[1,2-a]pyrimidin-6-yl]-1H-imidazol-1-yl}ethoxy)piperidin-1-yl]methyl}piperidin-1-yl)-1,2-oxazol-5-yl]-3-methylbutanoyl]-4-hydroxy-N-[(1S)-1-[4-(4-methyl-1,3-thiazol-5-yl)phenyl]ethyl]pyrrolidine-2-carboxamide] | 2.5 to 10 nM | > 75%
